Laboratory results taken from ChEMBL document CHEMBL1139433 (J Med Chem, 2004).
Square brackets hold non-standard residues; d marks the D form. Peptide text beside a SMILES is read from it. Phe(4-NH2) = Nc1ccc(C[C@H](N)C(=O)O)cc1

Biological target: T1, Angiotensin II receptor (AT-1) type-1 (Rattus norvegicus, UniProt P29089+P25095)
T1 sequence (P29089 whole entry): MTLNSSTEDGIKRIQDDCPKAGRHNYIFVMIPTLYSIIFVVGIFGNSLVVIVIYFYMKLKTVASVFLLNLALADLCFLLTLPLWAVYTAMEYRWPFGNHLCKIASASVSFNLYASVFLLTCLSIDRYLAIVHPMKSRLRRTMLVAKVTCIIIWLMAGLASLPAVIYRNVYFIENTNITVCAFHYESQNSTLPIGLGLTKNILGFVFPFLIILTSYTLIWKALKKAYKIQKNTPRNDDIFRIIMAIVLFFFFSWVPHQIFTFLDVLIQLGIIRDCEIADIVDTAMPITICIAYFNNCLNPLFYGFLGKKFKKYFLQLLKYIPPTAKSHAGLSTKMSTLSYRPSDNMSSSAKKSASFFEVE
T1 sequence (P25095 whole entry): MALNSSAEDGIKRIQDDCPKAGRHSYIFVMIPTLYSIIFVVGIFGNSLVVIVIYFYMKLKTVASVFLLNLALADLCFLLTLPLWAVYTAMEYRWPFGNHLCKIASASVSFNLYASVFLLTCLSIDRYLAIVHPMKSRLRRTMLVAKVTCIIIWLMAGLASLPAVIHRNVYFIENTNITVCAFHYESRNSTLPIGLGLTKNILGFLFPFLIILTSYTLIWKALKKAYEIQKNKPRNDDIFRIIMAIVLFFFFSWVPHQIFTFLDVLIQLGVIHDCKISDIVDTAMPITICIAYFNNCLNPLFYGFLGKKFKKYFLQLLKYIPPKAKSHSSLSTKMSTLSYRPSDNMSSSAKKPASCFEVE
Test: Displacement of [125I]-Ang II from rat liver membrane angiotensin II type 1 (AT1) receptor

Structure (SMILES): CC[C@H](C)[C@H](NC(=O)[C@H](Cc1ccc(O)cc1)NC(=O)[C@@H](NC(=O)[C@H](CCCN=C(N)N)NC(=O)[C@@H](N)CC(=O)O)C(C)C)C(=O)N[C@@H](Cc1ccc(N)cc1)C(=O)N1CCC[C@H]1C(=O)N[C@@H](Cc1ccccc1)C(=O)O (H-DRVYI[Phe(4-NH2)]PF-OH)
- Ki: > 10 µM
